How the values were obtained:
[1] = system: human breast tumors grown subcutaneously in mice; conditions: transdermally delivered; cited from earlier work
[2] = Effects of pH on isomerization at 40° C. (Example 5); type: physicochemical
[3] = system: normal and cancerous breast cells; conditions: in vitro; cited from earlier work
[4] = cited from earlier work
[5] = in vivo; cited from earlier work
[6] = Initial E/Z 37/63, Buffer pH 2.2, Final pH 4, Day
[7] = Initial E/Z 37/63, Buffer pH 2.2, Final pH 4, Day 8
[8] = Initial E/Z 37/63, Buffer pH 2.2, Final pH 4, Mo. 1
[9] = Initial E/Z 37/63, Buffer pH 2.2, Final pH 4, Mo. 2
[10] = Initial E/Z 37/63, Buffer pH 2.2, Final pH 4, Mo. 3
[11] = Initial E/Z 37/63, Buffer pH 4, Final pH 6, Day
[12] = Initial E/Z 37/63, Buffer pH 4, Final pH 6, Day 8
[13] = Initial E/Z 37/63, Buffer pH 4, Final pH 6, Mo. 1
[14] = Initial E/Z 37/63, Buffer pH 4, Final pH 6, Mo. 2
[15] = Initial E/Z 37/63, Buffer pH 4, Final pH 6, Mo. 3
[16] = Initial E/Z 37/63, Buffer pH 4, Final pH 6, Time 0
[17] = Initial E/Z 37/63, Buffer pH 6, Final pH 7, Day
[18] = Initial E/Z 37/63, Buffer pH 6, Final pH 7, Day 8
[19] = Initial E/Z 37/63, Buffer pH 6, Final pH 7, Mo. 1
[20] = Initial E/Z 37/63, Buffer pH 6, Final pH 7, Mo. 2
[21] = Initial E/Z 37/63, Buffer pH 6, Final pH 7, Mo. 3
[22] = Initial E/Z 37/63, Buffer pH 6, Final pH 7, Time 0
[23] = Initial E/Z 37/63, Buffer pH 8, Final pH 9, Day
[24] = Initial E/Z 37/63, Buffer pH 8, Final pH 9, Day 8
[25] = Initial E/Z 37/63, Buffer pH 8, Final pH 9, Mo. 1
[26] = Initial E/Z 37/63, Buffer pH 8, Final pH 9, Mo. 2
[27] = Initial E/Z 37/63, Buffer pH 8, Final pH 9, Mo. 3
[28] = Initial E/Z 37/63, Buffer pH 8, Final pH 9, Time 0
[29] = Initial E/Z 37/63, Buffer pH 10, Final pH 12, Day
[30] = Initial E/Z 37/63, Buffer pH 10, Final pH 12, Day 8
[31] = Initial E/Z 37/63, Buffer pH 10, Final pH 12, Mo. 1
[32] = Initial E/Z 37/63, Buffer pH 10, Final pH 12, Mo. 2
[33] = Initial E/Z 37/63, Buffer pH 10, Final pH 12, Mo. 3
[34] = Initial E/Z 37/63, Buffer pH 10, Final pH 12, Time 0
[35] = Initial E/Z 100/0, Buffer pH 2.2, Final pH 4, Day
[36] = Initial E/Z 100/0, Buffer pH 2.2, Final pH 4, Day 8
[37] = Initial E/Z 100/0, Buffer pH 2.2, Final pH 4, Mo. 1
[38] = Initial E/Z 100/0, Buffer pH 2.2, Final pH 4, Mo. 2
[39] = Initial E/Z 100/0, Buffer pH 2.2, Final pH 4, Mo. 3
[40] = Initial E/Z 100/0, Buffer pH 4, Final pH 6, Day
[41] = Initial E/Z 100/0, Buffer pH 4, Final pH 6, Day 8
[42] = Initial E/Z 100/0, Buffer pH 4, Final pH 6, Mo. 1
[43] = Initial E/Z 100/0, Buffer pH 4, Final pH 6, Mo. 2
[44] = Initial E/Z 100/0, Buffer pH 4, Final pH 6, Mo. 3
[45] = Initial E/Z 100/0, Buffer pH 4, Final pH 6, Time 0
[46] = Initial E/Z 100/0, Buffer pH 6, Final pH 7, Day
[47] = Initial E/Z 100/0, Buffer pH 6, Final pH 7, Day 8
[48] = Initial E/Z 100/0, Buffer pH 6, Final pH 7, Mo. 1
[49] = Initial E/Z 100/0, Buffer pH 6, Final pH 7, Mo. 2
[50] = Initial E/Z 100/0, Buffer pH 6, Final pH 7, Mo. 3
[51] = Initial E/Z 100/0, Buffer pH 6, Final pH 7, Time 0
[52] = Initial E/Z 100/0, Buffer pH 8, Final pH 9, Day
[53] = Initial E/Z 100/0, Buffer pH 8, Final pH 9, Day 8
[54] = Initial E/Z 100/0, Buffer pH 8, Final pH 9, Mo. 1
[55] = Initial E/Z 100/0, Buffer pH 8, Final pH 9, Mo. 2
[56] = Initial E/Z 100/0, Buffer pH 8, Final pH 9, Mo. 3
[57] = Initial E/Z 100/0, Buffer pH 8, Final pH 9, Time 0
[58] = Initial E/Z 100/0, Buffer pH 10, Final pH 12, Day
[59] = Initial E/Z 100/0, Buffer pH 10, Final pH 12, Day 8
[60] = Initial E/Z 100/0, Buffer pH 10, Final pH 12, Mo. 1
[61] = Initial E/Z 100/0, Buffer pH 10, Final pH 12, Mo. 2
[62] = Initial E/Z 100/0, Buffer pH 10, Final pH 12, Mo. 3
[63] = Initial E/Z 100/0, Buffer pH 10, Final pH 12, Time 0

## CCC(=C(c1ccc(O)cc1)c1ccc(OCCN(C)C)cc1)c1ccccc1 [4-hydroxy tamoxifen, 1-[4-(2-N-dimethylaminoethoxy)phenyl]-1-(4-hydroxyphenyl)-2-phenylbut-1-ene]
[1]
  anti-tumor effect: exhibits an anti-tumor effect
[2]
  effect of pH on the equilibration process: Low and high pH speed the equilibration process
[2]; [6]
  % E: 48.5%
  % Z: 51.5%
[2]; [7]
  % E: 52.5%
  % Z: 47.5%
[2]; [8]
  % E: 48.2%
  % Z: 51.8%
[2]; [9]
  % E: 48.0%
  % Z: 52.0%
[2]; [10]
  % E: 48.0%
  % Z: 52.0%
[2]; Initial E/Z 37/63, Buffer pH 2.2, Final pH 4, Time 0
  % Z: 37.1%
[2]; [11]
  % E: 51.0%
  % Z: 49.0%
[2]; [12]
  % E: 56.8%
  % Z: 43.2%
[2]; [13]
  % E: 49.4%
  % Z: 50.6%
[2]; [14]
  % E: 49.0%
  % Z: 51.0%
[2]; [15]
  % E: 48.5%
  % Z: 51.5%
[2]; [16]
  % E: 62.9%
  % Z: 37.1%
[2]; [17]
  % E: 58.0%
  % Z: 42.0%
[2]; [18]
  % E: 61.1%
  % Z: 38.9%
[2]; [19]
  % E: 55.8%
  % Z: 44.2%
[2]; [20]
  % E: 52.0%
  % Z: 48.0%
[2]; [21]
  % E: 50.4%
  % Z: 49.6%
[2]; [22]
  % E: 62.5%
  % Z: 37.5%
[2]; [23]
  % E: 56.9%
  % Z: 43.1%
[2]; [24]
  % E: 60.6%
  % Z: 39.4%
[2]; [25]
  % E: 54.2%
  % Z: 45.8%
[2]; [26]
  % E: 50.8%
  % Z: 49.2%
[2]; [27]
  % E: 49.9%
  % Z: 50.1%
[2]; [28]
  % E: 62.7%
  % Z: 37.3%
[2]; [29]
  % E: 49.0%
  % Z: 51.0%
[2]; [30]
  % E: 48.5%
  % Z: 51.5%
[2]; [31]
  % E: 49.0%
  % Z: 51.0%
[2]; [32]
  % E: 48.8%
  % Z: 51.2%
[2]; [33]
  % E: 49.0%
  % Z: 51.0%
[2]; [34]
  % E: 63.4%
  % Z: 36.6%
[2]; [35]
  % E: 45.9%
  % Z: 54.1%
[2]; [36]
  % E: 29.0%
  % Z: 71.0%
[2]; [37]
  % E: 47.4%
  % Z: 52.6%
[2]; [38]
  % E: 48.0%
  % Z: 52.0%
[2]; [39]
  % E: 47.7%
  % Z: 52.3%
[2]; Initial E/Z 100/0, Buffer pH 2.2, Final pH 4, Time 0
  % Z: 100.0%
[2]; [40]
  % E: 34.3%
  % Z: 65.7%
[2]; [41]
  % E: 12.5%
  % Z: 87.5%
[2]; [42]
  % E: 43.2%
  % Z: 56.8%
[2]; [43]
  % E: 48.1%
  % Z: 51.9%
[2]; [44]
  % E: 48.5%
  % Z: 51.5%
[2]; [45]
  % E: 0.0%
  % Z: 100.0%
[2]; [46]
  % E: 9.6%
  % Z: 90.4%
[2]; [47]
  % E: 2.9%
  % Z: 97.1%
[2]; [48]
  % E: 16.6%
  % Z: 83.4%
[2]; [49]
  % E: 31.3%
  % Z: 68.6%
[2]; [50]
  % E: 40.8%
  % Z: 59.2%
[2]; [51]
  % E: 0.0%
  % Z: 100.0%
[2]; [52]
  % E: 11.6%
  % Z: 88.4%
[2]; [53]
  % E: 3.4%
  % Z: 96.6%
[2]; [54]
  % E: 20.6%
  % Z: 79.4%
[2]; [55]
  % E: 36.4%
  % Z: 63.6%
[2]; [56]
  % E: 44.1%
  % Z: 55.9%
[2]; [57]
  % E: 0.0%
  % Z: 100.0%
[2]; [58]
  % E: 48.8%
  % Z: 51.2%
[2]; [59]
  % E: 48.3%
  % Z: 51.7%
[2]; [60]
  % E: 48.8%
  % Z: 51.2%
[2]; [61]
  % E: 48.8%
  % Z: 51.2%
[2]; [62]
  % E: 48.9%
  % Z: 51.1%
[2]; [63]
  % E: 0.0%
  % Z: 100.0%
[2]; Initial E/Z ratios of 37/63, Buffer pH 2.2, Final pH 4, Time 0
  % E: 62.9%
[2]; Initial E/Z ratios of 100/0, Buffer pH 2.2, Final pH 4, Time 0
  % E: 0.0%
[3]
  growth of both normal and cancerous breast cells: inhibits the growth
[4]; Katzenellenbogen et al., isomers initially 99% pure, after 2 days in tissue culture medium at 37° C.
  extent of isomerization: 20%
[4]; Malet et al.
  time within which spontaneous isomerization of Z- into E-4-hydroxy tamoxifen occurred: 24-48 h
[5]
  distribution after percutaneous administration: can concentrate in local breast tumors, with very little systemic distribution

From patent publication US20050208139A1 (Ascend Therapeutics, Inc., priority 2004, published 2005)
